Experimental data as given in ChEMBL document CHEMBL1255208, “A class of novel conjugates of substituted purine and Gly-AA-OBzl: synthesis and evaluation of orally analgesic activity” (2010).

What was measured:
Assay type in all cases: functional
Mus musculus [1] = assay: Analgesic activity in mouse assessed as pain threshold variation at 30 umol/kg, po after 60 mins (RVb = 0.15 +/- 0.16 %)
Mus musculus [2] = assay: Analgesic activity in mouse assessed as pain threshold variation at 3 umol/kg, po after 90 mins (RVb = 0.17 +/- 0.14 %)
Mus musculus [3] = assay: Analgesic activity in mouse assessed as pain threshold variation at 0.3 umol/kg, po after 150 mins (RVb = 0.16 +/- 0.13 %)
Mus musculus [4] = assay: Analgesic activity in mouse assessed as pain threshold variation at 30 umol/kg, po after 180 mins (RVb = 0.15 +/- 0.12 %)
Mus musculus [5] = assay: Analgesic activity in mouse assessed as pain threshold variation at 30 umol/kg, po after 120 mins (RVb = 0.18 +/- 0.15 %)
Mus musculus [6] = assay: Analgesic activity in mouse assessed as pain threshold variation at 0.3 umol/kg, po after 180 mins (RVb = 0.15 +/- 0.12 %)
Mus musculus [7] = assay: Analgesic activity in mouse assessed as pain threshold variation at 3 umol/kg, po after 60 mins (RVb = 0.15 +/- 0.16 %)
Mus musculus [8] = assay: Analgesic activity in mouse assessed as pain threshold variation at 25 umol/kg, po after 30 mins (RVb = -1 +/- 2.8 %)
Mus musculus [9] = assay: Analgesic activity in mouse assessed as pain threshold variation at 3 umol/kg, po after 30 mins (RVb = 0.13 +/- 0.14 %)
Mus musculus [10] = assay: Analgesic activity in mouse assessed as pain threshold variation at 25 umol/kg, po after 60 mins (RVb = -6.5 +/- 1.79 %)
Mus musculus [11] = assay: Analgesic activity in mouse assessed as pain threshold variation at 0.3 umol/kg, po after 90 mins (RVb = 0.17 +/- 0.14 %)
Mus musculus [12] = assay: Analgesic activity in mouse assessed as pain threshold variation at 30 umol/kg, po after 30 mins (RVb = 0.13 +/- 0.14 %)
Mus musculus [13] = assay: Analgesic activity in mouse assessed as pain threshold variation at 0.3 umol/kg, po after 120 mins (RVb = 0.18 +/- 0.15 %)
Mus musculus [14] = assay: Analgesic activity in mouse assessed as pain threshold variation at 3 umol/kg, po after 180 mins (RVb = 0.15 +/- 0.12 %)
Mus musculus [15] = assay: Analgesic activity in mouse assessed as pain threshold variation at 3 umol/kg, po after 150 mins (RVb = 0.16 +/- 0.13 %)
Mus musculus [16] = assay: Analgesic activity in mouse assessed as pain threshold variation at 30 umol/kg, po after 150 mins (RVb = 0.16 +/- 0.13 %)
Mus musculus [17] = assay: Analgesic activity in mouse assessed as pain threshold variation at 25 umol/kg, po after 150 mins (RVb = 3.98 +/- 4.03 %)
Mus musculus [18] = assay: Analgesic activity in mouse assessed as pain threshold variation at 25 umol/kg, po after 180 mins (RVb = -5.10 %)
Mus musculus [19] = assay: Analgesic activity in mouse assessed as pain threshold variation at 25 umol/kg, po after 90 mins (RVb = 0.2 +/- 3.75 %)
Mus musculus [20] = assay: Analgesic activity in mouse assessed as pain threshold variation at 30 umol/kg, po after 90 mins (RVb = 0.17 +/- 0.14 %)
Mus musculus [21] = assay: Analgesic activity in mouse assessed as pain threshold variation at 3 umol/kg, po after 120 mins (RVb = 0.18 +/- 0.15 %)
Mus musculus [22] = assay: Analgesic activity in mouse assessed as pain threshold variation at 25 umol/kg, po after 120 mins (RVb = 0.69 +/- 1.98 %)
Mus musculus [23] = assay: Analgesic activity in mouse assessed as pain threshold variation at 0.3 umol/kg, po after 60 mins (RVb = 0.15 +/- 0.16 %)
Mus musculus [24] = assay: Analgesic activity in mouse assessed as pain threshold variation at 0.3 umol/kg, po after 30 mins (RVb = 0.13 +/- 0.14 %)

SMILES | Activity (Mus musculus [1]) | Activity (Mus musculus [2]) | Activity (Mus musculus [3]) | Activity (Mus musculus [4]) | Activity (Mus musculus [5]) | Activity (Mus musculus [6]) | Activity (Mus musculus [7]) | Activity (Mus musculus [8]) | Activity (Mus musculus [9]) | Activity (Mus musculus [10]) | Activity (Mus musculus [11]) | Activity (Mus musculus [12]) | Activity (Mus musculus [13]) | Activity (Mus musculus [14]) | Activity (Mus musculus [15]) | Activity (Mus musculus [16]) | Activity (Mus musculus [17]) | Activity (Mus musculus [18]) | Activity (Mus musculus [19]) | Activity (Mus musculus [20]) | also measured
N=C(N)NCCC[C@H](NC(=O)CN(c1nc(Cl)nc2c1ncn2C1CCCCO1)C1CC1)C(=O)OCc1ccccc1 (stereo partly drawn) | 57.51% | 50.14% | 10.03% | 14.01% | 43.3% | 7.56% | 41.07% | 34.27% | 20.55% | 52.35% | 32.88% | 39.41% | 12.14% | 10.34% | 15% | 24.69% | 19.6% | 7.97% | 61.58% | 66.71% | Activity (Mus musculus [21]): 29.09%; Activity (Mus musculus [22]): 38.16%; Activity (Mus musculus [23]): 25.11%; Activity (Mus musculus [24]): 12.15%
O=C(CN(c1nc(Cl)nc2c1ncn2C1CCCCO1)C1CC1)NCC(=O)OCc1ccccc1 (stereo not drawn) | 45.52% | 20.25% | 9.45% | 10.16% | 22.31% | 9% | 29.07% | 55.72% | 45.27% | 40.44% | 11.2% | 60.84% | 10.02% | 9.2% | 10.04% | 12.33% | 7.26% | 0.06% | 25.94% | 31.04% | Activity (Mus musculus [21]): 14.53%; Activity (Mus musculus [22]): 17.23%; Activity (Mus musculus [23]): 16.24%; Activity (Mus musculus [24]): 18%
